From patent US7060490B1, “DNA encoding novel estrogen receptor” (Akzo Nobel N.V., priority 1996, dated 2006) come the findings set out here.

Assay [1] concerns the target ERβ (Homo sapiens, UniProt Q92731). In words: Transient transfection transactivation assay, rat oxytocin promoter-luciferase reporter in CHO cells, ERβ. Background: Reporter assays use an easily measured gene product as a stand-in for the process of interest.
Assay [2] addresses T1, ERα (Homo sapiens, UniProt P03372).
T1 construct: expressed in transfected cells
Kind of assay: Transactivation assay in stably transfected CHO cell line expressing ERα with rat oxytocin-luciferase reporter. As to conditions: stably transfected CHO cell lines ERα vs ERβ; agonist curves FIGS. 5A, 5B. In kind it is cell-based.

ERβ, sequence (Q92731 whole entry): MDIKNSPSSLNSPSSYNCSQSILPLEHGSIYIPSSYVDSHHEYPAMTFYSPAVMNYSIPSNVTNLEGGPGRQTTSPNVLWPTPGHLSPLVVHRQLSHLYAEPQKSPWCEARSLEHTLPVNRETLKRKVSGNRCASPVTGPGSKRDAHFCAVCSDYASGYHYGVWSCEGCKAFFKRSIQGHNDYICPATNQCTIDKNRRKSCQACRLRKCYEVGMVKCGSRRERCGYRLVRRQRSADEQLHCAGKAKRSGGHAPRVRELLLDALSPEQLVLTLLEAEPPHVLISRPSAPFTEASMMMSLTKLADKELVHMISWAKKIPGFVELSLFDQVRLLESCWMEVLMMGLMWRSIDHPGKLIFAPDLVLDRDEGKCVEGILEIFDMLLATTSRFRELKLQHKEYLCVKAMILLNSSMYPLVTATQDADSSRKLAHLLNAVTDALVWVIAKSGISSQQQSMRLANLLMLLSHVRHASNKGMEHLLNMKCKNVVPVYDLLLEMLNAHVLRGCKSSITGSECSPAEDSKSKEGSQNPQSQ
T1 sequence (P03372 whole entry): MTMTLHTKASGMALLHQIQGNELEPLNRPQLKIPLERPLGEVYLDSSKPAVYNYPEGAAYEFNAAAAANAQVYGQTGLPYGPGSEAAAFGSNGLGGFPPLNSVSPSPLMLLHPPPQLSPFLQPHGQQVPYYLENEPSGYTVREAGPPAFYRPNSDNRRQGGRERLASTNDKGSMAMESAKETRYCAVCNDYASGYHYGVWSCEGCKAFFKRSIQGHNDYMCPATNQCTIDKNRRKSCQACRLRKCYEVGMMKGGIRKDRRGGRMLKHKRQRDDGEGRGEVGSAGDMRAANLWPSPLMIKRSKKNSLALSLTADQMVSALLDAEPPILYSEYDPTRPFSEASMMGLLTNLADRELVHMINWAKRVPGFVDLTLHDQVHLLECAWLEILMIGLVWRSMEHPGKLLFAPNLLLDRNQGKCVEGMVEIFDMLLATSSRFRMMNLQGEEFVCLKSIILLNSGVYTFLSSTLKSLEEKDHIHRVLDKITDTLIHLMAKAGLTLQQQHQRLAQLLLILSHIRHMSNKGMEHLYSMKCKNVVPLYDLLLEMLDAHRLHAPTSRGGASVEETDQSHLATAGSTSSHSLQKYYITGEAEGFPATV

As for `C[C@]12CC[C@@H]3c4ccc(O)cc4CC[C@H]3[C@@H]1CC[C@@H]2O` [17β-estradiol], the “stimulation of luciferase activity with ERβ” value in assay [1] (10^−9 mol/L 17β-estradiol, transient CHO, normalised for β-galactosidase, FIG. 3) was 7 fold. In addition, the “increase in luciferase activity as compared to untreated cells” value in assay [1] (CHO cells transiently transfected with ERβ expression vector and reporter, hormones 10^−7 mol/L, FIG. 2) is on record as 3 to 4 fold. For `C#C[C@]1(O)CC[C@H]2[C@@H]3[C@H](C)CC4=C(CC[C@@H](O)C4)[C@H]3CC[C@@]21C` [Org4094], in assay [2], the “concentration for half-maximal transactivation, ERα as compared to ERβ” value is listed as “much more pronounced”.
